From US6500864B1, “Disulfide derivatives useful for treating allergic diseases” (Alcon Universal Ltd., priority 2000, dated 2002) come the findings set out here.

The assay relates to human conjunctival tissue mast cells. The assay is described as follows: Inhibition of anti-human IgE induced histamine release from human conjunctival tissue mast cells (HCTMC), histamine by RIA. It is filed as cell-based. The note with it: Mast cell, bracketed value, equals the mean of the four single determinations in the same cell, read-out: IC50 (nM), value in square brackets. As to the method:
Methods detailing preparation of monodispersed HCTMC and mediator release studies with these cells have been described (U.S. Pat. No. 5,360,720 and Miller et al, Ocular Immunology and Inflammation, 4(1):39-49 (1996)). Briefly, human conjunctival tissue mast cells were isolated from post-mortem tissue donors obtained within 8 hours of death by various eye banks and transported in Dexsol® corneal preservation medium, or equivalent. Tissues were enzymatically digested by repeated exposure (30 min. at 37° C.) to collagenase and hyaluronidase (2× with 200 U each/gram tissue, then 2-4× with 2000 U each/gram tissue) in Tyrode's buffer containing 0.1% gelatin. (Tyrode's buffer (in mM): 137 NaCl, 2.7 KCl, 0.35 NaH2PO4, 1.8 CaCl2, 0.98 MgCl2, 11.9 NaHCO3, and 5.5 glucose). […]
Cells were harvested from the culture plate and counted for viability (trypan blue exclusion) and mast cell number (toluidine blue O). […] Supernatants were stored at −20° C. until analyzed for histamine content by RIA (Beckman Coulter, Chicago, Ill.). […]
Inhibition of histamine release was determined by direct comparison of with anti-IgE challenged mast cells using Dunnett's t-test (Dunnett, “A multiple comparison procedure for comparing treatments with a control”, J. Amer. Stat. Assoc. (1955), 50:1096-1121).

On to `C=CCNC(=O)Nc1ccccc1SSc1ccccc1NC(=O)NCC=C` [Compound 1], for which the IC50 (usually the concentration that inhibits the measured activity by half) worked out at 194 nM.
